Experimental data as given in patent US8227601B2, “Diaryl-purines, azapurines and -deazapurines as non-nucleoside reverse transcriptase inhibitor for treatment of HIV” (priority 2005, dated 2012).

Key:
Experiment in all cases: microbe, parasite or virus in culture
Type in all cases: cell-based, human immunodeficiency virus type 1 (HIV-1)
[1] = system: HIV-1 Y188L; conditions: Human immunodeficiency virus 1, read-out: EC50 Y188L (nM)
[2] = system: HIV-1 Y181C; conditions: Human immunodeficiency virus 1, read-out: EC50 Y181C (nM), Y181C mutant
[3] = system: HIV-1 L1001-K103N; conditions: Human immunodeficiency virus 1, read-out: EC50 L1001-K103N (nM), L1001-K103N mutant
[4] = system: wild type HIV-1; conditions: Human immunodeficiency virus 1, Hela-JC53, read-out: EC50 WT (nM)

| SMILES | EC50 [1] [nM] | EC50 [2] [nM] | EC50 [3] [nM] | EC50 [4] [nM] |
| --- | --- | --- | --- | --- |
| N#Cc1ccc(Nc2nc(Nc3ccc4c(c3)CCC4)c3nc[nH]c3n2)cc1 [Cpd 29] | > 100 | > 100 | > 100 | < 10 |
| N#Cc1ccc(Nc2nc(Nc3ccc(C#N)cc3)c3nc[nH]c3n2)cc1 [Cpd 24] | > 100 | > 100 | > 100 | 10 to 100 |
| CCn1ccc2c(Oc3c(C)cc(C#N)cc3C)nc(Nc3ccc(C#N)cc3)nc21 [Cpd 26] | 10 to 100 | 10 to 100 | > 100 | < 10 |
| COC(=O)c1ccc(Nc2nc(Oc3c(C)cc(C)cc3C)c3nc[nH]c3n2)cc1 [Cpd 14] | > 100 | > 100 | > 100 | < 10 |
| Cc1cc(Br)cc(Cl)c1Oc1nc(Nc2ccc(C#N)cc2)nc2cc[nH]c12 [Cpd 71] | < 10 | < 10 | < 10 | < 10 |
| Cc1cc(C)c(Oc2nc(Nc3ccc(S(N)(=O)=O)cc3)nc3[nH]cnc23)c(C)c1 [Cpd 12] | > 100 | > 100 | > 100 | 10 to 100 |
| Cc1cc(C)c(Oc2nc(Nc3ccc(C(=O)O)cc3)nc3[nH]cnc23)c(C)c1 [Cpd 16] | > 100 | > 100 | > 100 | > 100 |
| Cc1cc(C#N)cc(C)c1Oc1nc(Nc2ccc(C#N)cc2)nc2[nH]ncc12 [Cpd 17] | < 10 | 10 to 100 | 10 to 100 | < 10 |
| Cc1cc(C2CC2)cc(Cl)c1Nc1nc(Nc2ccc(C#N)cc2)nc2[nH]cnc12 [Cpd 27] | 10 to 100 | 10 to 100 | 10 to 100 | < 10 |
| Cc1cc(C#N)cc(C)c1Oc1nc(Nc2ccc(C#N)cc2)nc2c1ccn2C [Cpd 13] | < 10 | < 10 | < 10 | < 10 |
| Cc1cc(C#N)cc(C)c1Oc1nc(Nc2ccc(C#N)cc2)nc2cc[nH]c12 [Cpd 42] | < 10 | < 10 | < 10 | < 10 |
| Cc1cc(C)c(Sc2nc(Nc3ccc(C#N)cc3)nc3c(Cl)c[nH]c23)c(C)c1 [Cpd 53] | 10 to 100 | 10 to 100 | > 100 | < 10 |
| Cc1cc(Cl)cc(C)c1Oc1nc(Nc2ccc(C#N)cc2)nc2c(Cl)cn(C)c12 [Cpd 62] | < 10 | < 10 | < 10 | < 10 |
| Cc1cc(C)c(Sc2nc(Nc3ccc(C#N)cc3)nc3ccn(Cc4ccccc4)c23)c(C)c1 [Cpd 48] | > 100 | 10 to 100 | > 100 | 10 to 100 |
| N#Cc1ccc(Nc2nc(Nc3ccc(C4CC4)c4ccccc34)c3nc[nH]c3n2)cc1 [Cpd 22] | > 100 | > 100 | > 100 | < 10 |
| Cc1cc(C2CC2)cc(C)c1Oc1nc(Nc2ccc(C#N)cc2)nc2[nH]cnc12 [Cpd 19] | < 10 | < 10 | 10 to 100 | < 10 |
| Cc1cc(C)c(Oc2nc(Nc3ccc(C#N)c(C(F)(F)F)c3)nc3[nH]cnc23)c(C)c1 [Cpd 40] | > 100 | 10 to 100 | 10 to 100 | 10 to 100 |
| CCCc1nn(C)c2c(Oc3c(C)cc(C)cc3C)nc(Nc3ccc(C#N)cc3)nc12 [Cpd 43] | > 100 | 10 to 100 | 10 to 100 | 10 to 100 |
| Cc1cccc(C)c1Oc1nc(Nc2ccc(C#N)cc2)nc2cc[nH]c12 [Cpd 65] | < 10 | < 10 | > 100 | < 10 |
| Cc1cc(C)c(Oc2nc(Nc3ccc(C#N)cc3)nc3[nH]cnc23)c(C)c1 [Cpd 5] | < 10 | < 10 | < 10 | < 10 |
| Cc1cc(C2CC2)cc(C)c1Oc1nc(Nc2ccc(C#N)cc2)nc2cc[nH]c12 [Cpd 52] | < 10 | < 10 | < 10 | < 10 |
| Cc1cc(C#N)cc(C)c1Oc1nc(Nc2ccc(C#N)cc2)nc2c(Cl)cn(C)c12 [Cpd 69] | < 10 | < 10 | < 10 | < 10 |
| Cc1cc(C#N)cc(C)c1Oc1nc(Nc2ccc(C#N)cc2)nc2c(Br)cn(C)c12 [Cpd 70] | < 10 | < 10 | < 10 | < 10 |
| Cc1cc(Br)cc(Cl)c1Oc1nc(Nc2ccc(C#N)cc2)nc2c1ccn2Cc1ccccc1 [Cpd 8] | > 100 | > 100 | > 100 | 10 to 100 |
| Cc1cc(C)c(Oc2nc(Nc3ccc(F)cc3)nc3[nH]cnc23)c(C)c1 [Cpd 34] | 10 to 100 | < 10 | 10 to 100 | < 10 |
| CC(=O)c1cc(C)c(Oc2nc(Nc3ccc(C#N)cc3)nc3ccn(Cc4ccccc4)c23)c(C)c1 [Cpd 60] | 10 to 100 | < 10 | 10 to 100 | < 10 |

| SMILES | EC50 [1] [nM] | EC50 [2] [nM] | EC50 [3] [nM] | EC50 [4] [nM] |
| --- | --- | --- | --- | --- |
| CC(=O)c1cc(C)c(Oc2nc(Nc3ccc(C#N)cc3)nc3c(Cl)c[nH]c23)c(C)c1 [Cpd 67] | 10 to 100 | < 10 | < 10 | < 10 |
| Cc1cc(Br)cc(Cl)c1Oc1nc(Nc2ccc(C#N)cc2)nc2[nH]ccc12 [Cpd 10] | 10 to 100 | 10 to 100 | 10 to 100 | < 10 |
| Cc1cc(C)c(Oc2nc(Nc3cccc(C(F)(F)F)c3)nc3[nH]cnc23)c(C)c1 [Cpd 39] | > 100 | > 100 | > 100 | > 100 |
| Cc1cc(C)c(Nc2nc(Nc3ccc(C#N)cc3)nc3[nH]cnc23)c(C)c1 [Cpd 23] | < 10 | < 10 | 10 to 100 | < 10 |
| Cc1cc(C)c(Oc2nc(Nc3ccc(C#N)cc3)nc3[nH]ccc23)c(C)c1 [Cpd 1] | 10 to 100 | 10 to 100 | 10 to 100 | < 10 |
| Cc1cc(C)c(Sc2nc(Nc3ccc(C#N)cc3)nc3cc[nH]c23)c(C)c1 [Cpd 51] | < 10 | < 10 | 10 to 100 | < 10 |
| N#Cc1ccc(Nc2nc(Oc3ccc(Cl)c4ccccc34)c3nc[nH]c3n2)cc1 [Cpd 21] | 10 to 100 | 10 to 100 | > 100 | < 10 |
| Cc1ccc(Nc2nc(Nc3ccc(C#N)cc3)nc3[nH]cnc23)c2ccccc12 [Cpd 20] | > 100 | 10 to 100 | > 100 | < 10 |
| Cc1cc(C#N)cc(C)c1Oc1nc(Nc2ccc(C#N)cc2)nc2ccn(C)c12 [Cpd 68] | < 10 | < 10 | < 10 | < 10 |
| Cc1cc(C)c(Sc2nc(Nc3ccc(C#N)cc3)nc3c(Cl)cn(Cc4ccccc4)c23)c(C)c1 [Cpd 54] | 10 to 100 | 10 to 100 | > 100 | < 10 |
| Cc1cc(C)c(Oc2nc(Nc3ccc(C(F)(F)F)cc3)nc3[nH]cnc23)c(C)c1 [Cpd 38] | > 100 | > 100 | > 100 | 10 to 100 |
| Cc1cc(Br)cc(C)c1Oc1nc(Nc2ccc(C#N)cc2)nc2[nH]ccc12 [Cpd 6] | 10 to 100 | 10 to 100 | 10 to 100 | < 10 |
| Cc1ccc2cccc(Nc3nc(Nc4ccc(C#N)cc4)nc4[nH]cnc34)c2n1 [Cpd 30] | > 100 | > 100 | > 100 | > 100 |
| Cc1ccc2ccccc2c1Nc1nc(Nc2ccc(C#N)cc2)nc2[nH]cnc12 [Cpd 32] | > 100 | 10 to 100 | > 100 | < 10 |
| Cc1cc(C2CC2)cc(C)c1Nc1nc(Nc2ccc(C#N)cc2)nc2[nH]cnc12 [Cpd 28] | 10 to 100 | < 10 | 10 to 100 | < 10 |
| Cc1cc(C)c(Sc2nc(Nc3ccc(C#N)cc3)nc3[nH]ccc23)c(C)c1 [Cpd 2] | 10 to 100 | 10 to 100 | > 100 | < 10 |
| COc1ccc(Nc2nc(Oc3c(C)cc(C)cc3C)c3nc[nH]c3n2)cc1 [Cpd 35] | > 100 | 10 to 100 | > 100 | < 10 |
| Cc1cc(C)c(Oc2nc(Nc3ccc(C(N)=O)cc3)nc3[nH]cnc23)c(C)c1 [Cpd 15] | > 100 | > 100 | > 100 | 10 to 100 |
| Cc1cc(C)c(Oc2nc(Nc3ccc(C#N)cc3)nc3ccn(Cc4ccccc4)c23)c(C)c1 [Cpd 64] | > 100 | 10 to 100 | > 100 | < 10 |
| Cc1cc(C#N)cc(C)c1Oc1nc(Nc2ccc(C#N)cc2)nc2c(Cl)c[nH]c12 [Cpd 49] | < 10 | < 10 | < 10 | < 10 |
| Cc1cc(C)c(Oc2nc(Nc3ccc(C#N)cc3)nc3ccn(C)c23)c(C)c1 [Cpd 57] | < 10 | < 10 | < 10 | < 10 |
| Cc1cc(C)c(Oc2nc(Nc3ccc(C#N)cc3)nc3[nH]ncc23)c(C)c1 [Cpd 7] | 10 to 100 | < 10 | 10 to 100 | < 10 |
| Cc1cc(Cl)cc(C)c1Oc1nc(Nc2ccc(C#N)cc2)nc2[nH]ccc12 [Cpd 11] | < 10 | 10 to 100 | 10 to 100 | < 10 |
| COc1cc(C)cc(OC)c1Oc1nc(Nc2ccc(C#N)cc2)nc2[nH]cnc12 [Cpd 50] | 10 to 100 | < 10 | > 100 | < 10 |
| Cc1cc(C)c(Oc2nc(Nc3ccc(C#N)cc3)nc3[nH]cc(Cl)c23)c(C)c1 [Cpd 18] | > 100 | > 100 | > 100 | 10 to 100 |
